Measurements: PubChem BioAssay (NCI)
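Where inhibition never reached the appropriate level, the endpoint shown equals the highest concentration tested. Otherwise, values were interpolated linearly from a five-concentration, 48-hour dose response in 96-well plates. Here, GI50 denotes the concentration required for 50% inhibition of growth. TGI: concentration producing complete growth inhibition.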

How the values were obtained:
Experiment in all cases: DTP human tumour cell line panel, 48 h
[1] = test system: 786-0 renal
[2] = test system: A498 renal
[3] = test system: A549 NSCLC
[4] = test system: ACHN renal
[5] = test system: BT-549 breast
[6] = test system: CAKI-1 renal
[7] = test system: CCRF-CEM leukemia
[8] = test system: COLO 205 colon
[9] = test system: DU-145 prostate
[10] = test system: HCC-2998 colon
[11] = test system: HCT-116 colon
[12] = test system: HCT-15 colon
[13] = test system: HL-60(TB) leukemia
[14] = test system: HOP-62 NSCLC
[15] = test system: HOP-92 NSCLC
[16] = test system: HS 578T breast
[17] = test system: IGROV1 ovarian
[18] = test system: K-562 leukemia
[19] = test system: KM12 colon
[20] = test system: LOX IMVI melanoma
[21] = test system: M14 melanoma
[22] = test system: MALME-3M melanoma
[23] = test system: MCF7 breast
[24] = test system: MDA-MB-231 breast
[25] = test system: MDA-MB-435
[26] = test system: MOLT-4 leukemia
[27] = test system: NCI-H226 lung
[28] = test system: NCI-H23 lung
[29] = test system: NCI-H460 lung
[30] = test system: NCI-H522 lung
[31] = test system: NCI/ADR-RES ovarian
[32] = test system: OVCAR-3 ovarian
[33] = test system: OVCAR-4 ovarian
[34] = test system: OVCAR-5 ovarian
[35] = test system: OVCAR-8 ovarian
[36] = test system: PC-3 prostate
[37] = test system: RPMI-8226 leukemia
[38] = test system: RXF 393 renal
[39] = test system: SF-268 CNS
[40] = test system: SF-295 CNS
[41] = test system: SF-539 CNS
[42] = test system: SK-MEL-2 melanoma
[43] = test system: SK-MEL-28 melanoma
[44] = test system: SK-MEL-5 melanoma
[45] = test system: SK-OV-3 ovarian
[46] = test system: SN12C renal
[47] = test system: SNB-19 CNS
[48] = test system: SNB-75 CNS
[49] = test system: SR leukemia
[50] = test system: SW-620 colon
[51] = test system: T-47D breast
[52] = test system: TK-10 renal
[53] = test system: U251 CNS
[54] = test system: UACC-257 melanoma
[55] = test system: UACC-62 melanoma
[56] = test system: UO-31 renal

O=C1/C(=C/c2ccc([N+](=O)[O-])s2)Oc2ccc(Br)cc21
GI50 [1]: 565 nM
TGI [1]: 4840 nM
GI50 [2]: 2310 nM
TGI [2]: 6320 nM
GI50 [3]: 376 nM
TGI [3]: 1680 nM
GI50 [4]: 199 nM
TGI [4]: 414 nM
GI50 [5]: 257 nM
TGI [5]: 741 nM
GI50 [6]: 1160 nM
TGI [6]: 9420 nM
GI50 [7]: 310 nM
TGI [7]: 961 nM
GI50 [8]: 470 nM
TGI [8]: 1860 nM
GI50 [9]: 1430 nM
TGI [9]: 2900 nM
GI50 [10]: 443 nM
TGI [10]: 1680 nM
GI50 [11]: 202 nM
TGI [11]: 410 nM
GI50 [12]: 208 nM
TGI [12]: 583 nM
GI50 [13]: 487 nM
TGI [13]: 7500 nM
GI50 [14]: 1000 nM
TGI [14]: 4300 nM
GI50 [15]: 210 nM
TGI [15]: 606 nM
GI50 [16]: 448 nM
TGI [16]: > 100000 nM
GI50 [17]: 309 nM
TGI [17]: 964 nM
GI50 [18]: 135 nM
TGI [18]: 833 nM
GI50 [19]: 247 nM
TGI [19]: 623 nM
GI50 [20]: 209 nM
TGI [20]: 486 nM
GI50 [21]: 423 nM
TGI [21]: 1900 nM
GI50 [22]: 347 nM
TGI [22]: 1600 nM
GI50 [23]: 309 nM
TGI [23]: 1870 nM
GI50 [24]: 201 nM
TGI [24]: 436 nM
GI50 [25]: 397 nM
TGI [25]: 1780 nM
GI50 [26]: 461 nM
TGI [26]: 3820 nM
GI50 [27]: 1140 nM
TGI [27]: 2840 nM
GI50 [28]: 549 nM
TGI [28]: 2220 nM
GI50 [29]: 396 nM
TGI [29]: 1630 nM
GI50 [30]: 177 nM
TGI [30]: 351 nM
GI50 [31]: 497 nM
TGI [31]: 4910 nM
GI50 [32]: 207 nM
TGI [32]: 409 nM
GI50 [33]: 352 nM
TGI [33]: 1430 nM
GI50 [34]: 1070 nM
TGI [34]: 2470 nM
GI50 [35]: 370 nM
TGI [35]: > 100000 nM
GI50 [36]: 251 nM
TGI [36]: 774 nM
GI50 [37]: 278 nM
TGI [37]: 1140 nM
GI50 [38]: 274 nM
TGI [38]: 813 nM
GI50 [39]: 256 nM
TGI [39]: 684 nM
GI50 [40]: 1240 nM
TGI [40]: 3350 nM
GI50 [41]: 212 nM
TGI [41]: 517 nM
GI50 [42]: 231 nM
TGI [42]: 509 nM
GI50 [43]: 302 nM
TGI [43]: 951 nM
GI50 [44]: 268 nM
TGI [44]: 805 nM
GI50 [45]: 2090 nM
TGI [45]: 5040 nM
GI50 [46]: 567 nM
TGI [46]: 2930 nM
GI50 [47]: 420 nM
TGI [47]: 2130 nM
GI50 [48]: 342 nM
TGI [48]: 4170 nM
GI50 [49]: 152 nM
TGI [49]: 914 nM
GI50 [50]: 242 nM
TGI [50]: 664 nM
GI50 [51]: 250 nM
TGI [51]: 804 nM
GI50 [52]: 389 nM
TGI [52]: 4660 nM
GI50 [53]: 211 nM
TGI [53]: 482 nM
GI50 [54]: 572 nM
TGI [54]: 3960 nM
GI50 [55]: 297 nM
TGI [55]: 963 nM
GI50 [56]: 166 nM
TGI [56]: 346 nM
